According to patent publication US9096591B2, “Tetracyclic compounds” (Medivation Technologies, Inc., priority 2007, dated 2015):
Values joined by “and” are separate entries in the source; they are usually repeats but may differ in a detail not shown here. Equal entries are not always repeated.

Assays:
[1] = target: T1, human recombinant dopamine D2L receptor (Homo sapiens, UniProt P14416); test: Dopamine D2L antagonist activity ([35S]GTPγS binding, SPA); type: biochemical
T1 construct: expressed in transfected cells; host or cells: CHO cells
Experimental: To determine for agonist or antagonist activity of compounds of the invention in functional assays, human recombinant dopamine D2L receptor stably expressed in Chinese hamster ovary (CHO) cells (Senogles S E et al. J Biol Chem. 265(8): 4507, 1990) was used. Compounds of invention were pre-incubated with the membranes (0.1 mg/ml) and […] in modified HEPES buffer (20 mM HEPES, pH 7.4, 100 mM NaCl, 10 mM MgCl2, 1 mM DTT, 1 mM EDTA) for 20 minutes and Scintillation Proximity Assay (SPA) beads were added for another 60 minutes at 30° C. The reaction was initiated by 0.3 nM [^35S]GTPγS for an additional 15 minute incubation period. […] Compounds were screened at 3 μM or lower, using 0.4% DMSO as vehicle. Assay results are presented as the percent response of specific binding in Table 8.

[2] = target: human recombinant dopamine D2S receptor (Homo sapiens, UniProt P14416); test: Dopamine D2S antagonist activity ([35S]GTPγS binding, SPA); type: biochemical
Experimental: To determine for agonist or antagonist activity of compounds of the invention in functional assays, human recombinant dopamine D2S receptor stably expressed in Chinese hamster ovary (CHO) cells (Gilliland S L and Alper R H. Naunyn-Schmiedeberg's Archives of Pharmacology. 361: 498, 2000) was used. Compounds of invention were pre-incubated with the membranes (0.05 mg/ml) and 3 μM GDP in modified HEPES buffer (20 mM HEPES, pH 7.4, 100 mM NaCl, 10 mM MgCl2, 1 mM DTT, 1 mM EDTA) for 20 minutes and Scintillation Proximity Assay (SPA) beads were then added for another 60 minutes at 30° C. The reaction was initiated by 0.3 nM [^35S]GTPγS for an additional 30 minute incubation period. […] Compounds were screened at 3 μM or lower, using 0.4% DMSO as vehicle. Assay results are presented as the percent response of specific binding in Table 9.

[3] = target: T2, human recombinant serotonin 5-HT2A receptor (Homo sapiens, UniProt P28223); test: Serotonin 5-HT2A agonist/antagonist functional assay (calcium fluorescence, HEK-293); type: cell-based; conditions: antagonist mode
T2 construct: expressed in transfected cells; host or cells: HEK-293 cells
Excerpt: To determine for agonist or antagonist activity of compounds of the invention in functional assays, human recombinant serotonin 5-HT2A receptor expressed in human embryonic kidney (HEK-293) cells (Jerman J C, Brough S J, Gager T, Wood M, Coldwell M C, Smart D and Middlemiss D N. Eur J Pharmacol, 414: 23-30, 2001) was used. Cells were suspended in DMEM buffer, and distributed in microplates. A cytoplasmic calcium fluorescent indicator which varies proportionally to the free cytosolic Ca^2+ ion concentration was mixed with probenicid in HBSS buffer complemented with 20 mM Hepes (pH 7.4), added into each well and equilibrated with the cells for 30 min at 37° C. followed by 30 min at 22° C. […]
The standard reference antagonist was ketanserin, which was tested in each experiment at several concentrations to generate a concentration-response curve from which its IC50 value was calculated.

[4] = 0.3 uM, two values = assay run twice, read-out: Antagonist Activity As Measured by % Inhibition D2L
[5] = two values = assay run twice, read-out: Antagonist Activity As Measured by % Inhibition D2S
[6] = 0.03 uM, two values = assay run twice

Sequence of human recombinant dopamine D2S receptor (P14416 1-414 isoform P14416-2): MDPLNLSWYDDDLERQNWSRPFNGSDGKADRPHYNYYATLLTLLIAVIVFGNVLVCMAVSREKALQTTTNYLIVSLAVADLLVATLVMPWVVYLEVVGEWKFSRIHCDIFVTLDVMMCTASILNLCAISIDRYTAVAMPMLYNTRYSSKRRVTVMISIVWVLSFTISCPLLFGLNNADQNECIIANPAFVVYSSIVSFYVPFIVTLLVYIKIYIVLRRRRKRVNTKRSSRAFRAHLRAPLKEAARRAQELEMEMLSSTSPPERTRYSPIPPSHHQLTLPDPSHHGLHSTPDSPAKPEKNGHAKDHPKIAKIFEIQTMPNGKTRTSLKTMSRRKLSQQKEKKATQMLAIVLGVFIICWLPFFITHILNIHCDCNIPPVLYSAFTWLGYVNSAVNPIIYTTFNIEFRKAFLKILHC
T1 sequence (P14416 whole entry): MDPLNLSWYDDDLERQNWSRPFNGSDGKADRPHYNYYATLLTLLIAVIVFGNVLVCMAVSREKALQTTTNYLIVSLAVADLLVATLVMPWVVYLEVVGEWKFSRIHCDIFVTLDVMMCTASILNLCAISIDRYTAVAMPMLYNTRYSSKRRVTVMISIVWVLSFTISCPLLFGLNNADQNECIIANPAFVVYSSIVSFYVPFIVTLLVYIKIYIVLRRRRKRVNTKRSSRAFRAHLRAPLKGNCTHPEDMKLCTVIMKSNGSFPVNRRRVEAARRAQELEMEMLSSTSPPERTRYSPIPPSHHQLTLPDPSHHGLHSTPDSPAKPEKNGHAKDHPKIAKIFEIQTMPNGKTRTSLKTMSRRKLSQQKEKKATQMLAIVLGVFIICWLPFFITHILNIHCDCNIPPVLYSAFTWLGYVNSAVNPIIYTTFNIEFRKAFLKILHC
T2 sequence (P28223 whole entry): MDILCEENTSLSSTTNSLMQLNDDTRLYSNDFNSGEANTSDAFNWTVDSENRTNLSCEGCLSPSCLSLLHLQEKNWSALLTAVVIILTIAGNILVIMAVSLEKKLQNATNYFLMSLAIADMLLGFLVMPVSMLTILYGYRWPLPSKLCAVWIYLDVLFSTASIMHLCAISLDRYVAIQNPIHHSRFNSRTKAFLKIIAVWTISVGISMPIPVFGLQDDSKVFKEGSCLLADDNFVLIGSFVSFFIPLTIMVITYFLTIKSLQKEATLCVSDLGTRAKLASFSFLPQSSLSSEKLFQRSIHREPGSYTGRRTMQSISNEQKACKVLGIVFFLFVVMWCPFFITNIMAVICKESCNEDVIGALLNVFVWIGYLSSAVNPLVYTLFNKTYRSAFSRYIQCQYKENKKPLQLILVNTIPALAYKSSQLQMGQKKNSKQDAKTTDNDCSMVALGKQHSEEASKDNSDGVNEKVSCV

SMILES: Cc1ccc2c(c1)c1c(n2CCc2ccc(C(F)(F)F)nc2)CCN(C)C1 [Compound 68]
- inhibition at 0.3 µM [1, 4]: 8%
- inhibition at 1 µM ([1]; 1 uM, read-out: Antagonist Activity As Measured by % Inhibition D2L): 27%
- inhibition at 3 µM ([1]; 3 uM, read-out: Antagonist Activity As Measured by % Inhibition D2L): 54%
- inhibition at 0.3 µM [2, 5]: 42%
- inhibition at 1 µM ([2]; 1 uM, read-out: Antagonist Activity As Measured by % Inhibition D2S): 70%
- inhibition at 3 µM ([2]; 3 uM, read-out: Antagonist Activity As Measured by % Inhibition D2S): 93%

SMILES: CN1CCc2c(c3cc(F)ccc3n2CCc2ccc(F)cc2)C1 [Compound 253]
- Antagonist Activity As Measured by % Inhibition D2L [1, 6]: 56%
- inhibition at 0.03 µM ([1]; 0.03 uM, two values = assay run twice, read-out: Antagonist Activity As Measured by % Inhibition D2L): 36%
- Antagonist Activity As Measured by % Inhibition D2L ([1]; 0.1 uM, two values = assay run twice): 77%
- inhibition at 0.1 µM ([1]; 0.1 uM, two values = assay run twice, read-out: Antagonist Activity As Measured by % Inhibition D2L): 57%
- Antagonist Activity As Measured by % Inhibition D2L ([1]; 0.3 uM, two values = assay run twice): 89%
- inhibition at 0.3 µM [1, 4]: 81%
- Antagonist Activity As Measured by % Inhibition D2S [2, 6]: 104% and 80%
- inhibition at 0.1 µM ([2]; 0.1 uM, two values = assay run twice, read-out: Antagonist Activity As Measured by % Inhibition D2S): 94%
- inhibition at 0.3 µM [2, 5]: 96%
- % of Control Agonist Response, 1st Assay ([3]; test concentration 1.00E−06 M): 0%
- % of Control Agonist Response, 2nd Assay ([3]; test concentration 1.00E−06 M): 3%
- % of Control Agonist Response, Mean ([3]; test concentration 1.00E−06 M): 1.5%
- % of Control Agonist Response, 1st Assay ([3]; test concentration 1.00E−07 M): 94%
- % of Control Agonist Response, 2nd Assay ([3]; test concentration 1.00E−07 M): 95%
- % of Control Agonist Response, Mean ([3]; test concentration 1.00E−07 M): 94.3%
- % of Control Agonist Response, 1st Assay ([3]; test concentration 3.00E−06 M): −3%
- % of Control Agonist Response, 2nd Assay ([3]; test concentration 3.00E−06 M): −3%
- % of Control Agonist Response, Mean ([3]; test concentration 3.00E−06 M): −2.6%
- % of Control Agonist Response, 1st Assay ([3]; test concentration 3.00E−07 M): 36%
- % of Control Agonist Response, 2nd Assay ([3]; test concentration 3.00E−07 M): 80%
- % of Control Agonist Response, Mean ([3]; test concentration 3.00E−07 M): 57.9%
- % of Control Agonist Response, 1st Assay ([3]; test concentration 3.00E−08 M): 114%
- % of Control Agonist Response, 2nd Assay ([3]; test concentration 3.00E−08 M): 119%
- % of Control Agonist Response, Mean ([3]; test concentration 3.00E−08 M): 116.5%
